Format in all cases: binding
Common to all, as to conditions: 1 = hit, 0 = no hit

For assay [1], the target named is AAK1 (121-471) (Homo sapiens, UniProt Q2M2I8). In words: STD-NMR fragment screening, AAK1. In outline: (§1)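 Saturation-transfer difference NMR was run at 25°C and 700 MHz with 20 µM protein, two fragments at 1 mM each, and 10% DMSO-d6. On-resonance saturation was at 0.5–0.6 ppm and off-resonance at 40 ppm, with a 3 s Gaussian-pulse train. A hit required a difference-spectrum peak at least three times the local noise.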

Assay [2] addresses T1, CAMK1G (1-320) (Homo sapiens, UniProt Q96NX5).
T1 construct: made in house; host or cells: E. coli BL21 (DE3) pLysS
Briefly: STD-NMR fragment screening, CAMK1G. In outline: as §1

Assay [3] deals with T2, IDO1 (1-435) (Homo sapiens, UniProt P14902).
T2 construct: His-tag of pET15b with TEV site (thrombin site replaced) (cleaved yes); made in house; host or cells: E. coli Rosetta 2 (DE3) pLysS
In words: STD-NMR fragment screening, IDO1. In outline: as §1

In assay [4] the target is T3, DOT1L (1-416) (Homo sapiens, UniProt Q8TEK3).
T3 construct: made in house; host or cells: E. coli BL21 (DE3) pLysS
In words: STD-NMR fragment screening, DOT1L. In outline:
as §1

T1 sequence (Q96NX5 1-320): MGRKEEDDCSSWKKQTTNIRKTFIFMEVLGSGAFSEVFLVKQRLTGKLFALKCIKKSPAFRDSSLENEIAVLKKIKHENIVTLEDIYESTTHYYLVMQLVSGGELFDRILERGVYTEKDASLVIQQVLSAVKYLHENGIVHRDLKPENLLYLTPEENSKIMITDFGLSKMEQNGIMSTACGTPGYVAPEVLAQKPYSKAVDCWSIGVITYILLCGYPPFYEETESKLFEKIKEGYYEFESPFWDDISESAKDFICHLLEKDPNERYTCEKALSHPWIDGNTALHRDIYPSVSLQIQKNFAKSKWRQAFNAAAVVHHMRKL
Chain of AAK1 (121-471) (Q2M2I8 46-315 limits assumed): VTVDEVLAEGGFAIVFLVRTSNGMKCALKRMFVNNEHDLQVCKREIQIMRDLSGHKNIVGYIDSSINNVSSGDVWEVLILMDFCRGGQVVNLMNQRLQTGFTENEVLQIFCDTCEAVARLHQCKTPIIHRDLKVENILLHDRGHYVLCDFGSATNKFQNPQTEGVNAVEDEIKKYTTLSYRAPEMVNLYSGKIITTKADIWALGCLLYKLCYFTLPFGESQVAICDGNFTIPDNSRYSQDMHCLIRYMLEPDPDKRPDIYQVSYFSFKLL
T3 sequence (Q8TEK3 1-416): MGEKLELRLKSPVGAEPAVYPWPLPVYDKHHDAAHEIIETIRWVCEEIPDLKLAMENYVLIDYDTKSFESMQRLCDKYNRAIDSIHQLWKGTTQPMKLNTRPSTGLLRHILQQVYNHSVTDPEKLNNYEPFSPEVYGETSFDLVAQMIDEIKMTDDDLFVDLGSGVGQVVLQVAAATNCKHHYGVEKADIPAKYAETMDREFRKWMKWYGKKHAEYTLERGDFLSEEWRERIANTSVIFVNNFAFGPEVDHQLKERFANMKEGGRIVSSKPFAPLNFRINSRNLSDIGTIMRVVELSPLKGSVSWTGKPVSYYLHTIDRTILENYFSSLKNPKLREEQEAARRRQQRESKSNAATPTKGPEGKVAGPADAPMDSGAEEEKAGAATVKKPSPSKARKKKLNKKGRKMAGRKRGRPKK
T2 sequence (P14902 whole entry): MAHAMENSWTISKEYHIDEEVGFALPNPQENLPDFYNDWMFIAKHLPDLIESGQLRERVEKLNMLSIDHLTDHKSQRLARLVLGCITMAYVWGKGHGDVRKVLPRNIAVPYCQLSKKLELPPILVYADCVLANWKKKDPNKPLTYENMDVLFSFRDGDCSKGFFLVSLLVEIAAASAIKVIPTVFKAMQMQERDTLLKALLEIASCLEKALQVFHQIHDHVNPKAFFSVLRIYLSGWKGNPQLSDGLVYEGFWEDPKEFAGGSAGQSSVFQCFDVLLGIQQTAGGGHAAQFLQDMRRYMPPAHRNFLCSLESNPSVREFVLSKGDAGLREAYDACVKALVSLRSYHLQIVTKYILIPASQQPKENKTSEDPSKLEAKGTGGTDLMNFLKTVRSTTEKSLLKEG

On to `Cc1n[nH]c(C(=O)O)c1Br` [Fragment B02294483], for which the “AAK1 (STD-NMR hit flag)” value in assay [1] is 1. Besides, the “CAMK1G (STD-NMR hit flag)” value in assay [2] was determined as 0. Besides, the “IDO1 (STD-NMR hit flag)” value in assay [3] came to 0. Besides, the “DOT1L (STD-NMR hit flag)” value in assay [4] is 0.

With `Oc1ccc(Cl)cc1` [Fragment B02294485], the “AAK1 (STD-NMR hit flag)” value in assay [1] is 0. Moreover, the “CAMK1G (STD-NMR hit flag)” value in assay [2] was 0. In addition, the “IDO1 (STD-NMR hit flag)” value in assay [3] amounted to 0. Further, the “DOT1L (STD-NMR hit flag)” value in assay [4] was 0.

As to `Clc1cnc2ccccn12` [Fragment B02294486], the “AAK1 (STD-NMR hit flag)” value in assay [1] is on record as 1. In assay [2], the “CAMK1G (STD-NMR hit flag)” value is recorded as 1. Also, the “IDO1 (STD-NMR hit flag)” value in assay [3] is recorded as 1. For the same molecule, the “DOT1L (STD-NMR hit flag)” value in assay [4] is recorded as 0.

As to `COc1cc(Cl)cnc1OC` [Fragment B02297394], in assay [1], the “AAK1 (STD-NMR hit flag)” value is 1. The “CAMK1G (STD-NMR hit flag)” value in assay [2] was determined as 1. Besides, the “IDO1 (STD-NMR hit flag)” value in assay [3] was 1. Besides, the “DOT1L (STD-NMR hit flag)” value in assay [4] is listed as 0.

In the case of `Nc1ccc(Br)c(C(=O)O)n1` [Fragment B02297395], the “AAK1 (STD-NMR hit flag)” value in assay [1] was found to be 0. Besides, the “CAMK1G (STD-NMR hit flag)” value in assay [2] stood at 0. Also, the “IDO1 (STD-NMR hit flag)” value in assay [3] came to 0. In assay [4], the “DOT1L (STD-NMR hit flag)” value was found to be 0.

Take `COc1ncc(Br)cc1C(=O)O` [Fragment B02297396]: in assay [1], the “AAK1 (STD-NMR hit flag)” value is listed as 0. Moreover, the “CAMK1G (STD-NMR hit flag)” value in assay [2] turned out to be 0. Besides, the “IDO1 (STD-NMR hit flag)” value in assay [3] was found to be 0. Besides, the “DOT1L (STD-NMR hit flag)” value in assay [4] is 0.

Consider `Fc1cc(C2CNCCN2)c(Cl)cc1Cl` (stereo not shown) [Fragment B02297397], for which the “AAK1 (STD-NMR hit flag)” value in assay [1] came to 0. Also, the “CAMK1G (STD-NMR hit flag)” value in assay [2] turned out to be 0. Further, in assay [3], the “IDO1 (STD-NMR hit flag)” value stood at 0. For the same molecule, the “DOT1L (STD-NMR hit flag)” value in assay [4] is 0.

With `O=C(O)c1sccc1Cl` [Fragment B02297398], the “AAK1 (STD-NMR hit flag)” value in assay [1] was 0. The “CAMK1G (STD-NMR hit flag)” value in assay [2] is listed as 0. Further, the “IDO1 (STD-NMR hit flag)” value in assay [3] was 0. In assay [4], the “DOT1L (STD-NMR hit flag)” value is 0.

With `OB(O)c1ccncc1Br` [Fragment B02297399], in assay [1], the “AAK1 (STD-NMR hit flag)” value is listed as 0. Besides, the “CAMK1G (STD-NMR hit flag)” value in assay [2] stood at 0. Besides, in assay [3], the “IDO1 (STD-NMR hit flag)” value was found to be 0. Also, in assay [4], the “DOT1L (STD-NMR hit flag)” value stood at 0.

With `O=C(c1ccc(Cl)cc1)N1CCOCC1` [Fragment B02297400], the “AAK1 (STD-NMR hit flag)” value in assay [1] is on record as 0. Besides, in assay [2], the “CAMK1G (STD-NMR hit flag)” value worked out at 0. The “IDO1 (STD-NMR hit flag)” value in assay [3] worked out at 0. Moreover, in assay [4], the “DOT1L (STD-NMR hit flag)” value is reported as 0.

For `Oc1cccc(O)c1Br` [Fragment B02297401], in assay [1], the “AAK1 (STD-NMR hit flag)” value is given as 1. The “CAMK1G (STD-NMR hit flag)” value in assay [2] is 0. Moreover, the “IDO1 (STD-NMR hit flag)” value in assay [3] came to 0. For the same molecule, in assay [4], the “DOT1L (STD-NMR hit flag)” value stood at 0.

Take `Cc1cnc(C)c(Cl)n1` [Fragment B02297402]: the “AAK1 (STD-NMR hit flag)” value in assay [1] turned out to be 1. The “CAMK1G (STD-NMR hit flag)” value in assay [2] was found to be 0. The “IDO1 (STD-NMR hit flag)” value in assay [3] came to 0. The “DOT1L (STD-NMR hit flag)” value in assay [4] came to 0.

For the molecule `O=C(O)c1cnccc1Br` [Fragment B02297403], the “AAK1 (STD-NMR hit flag)” value in assay [1] was 0. Also, the “CAMK1G (STD-NMR hit flag)” value in assay [2] came out at 0. The “IDO1 (STD-NMR hit flag)” value in assay [3] was found to be 0. Besides, in assay [4], the “DOT1L (STD-NMR hit flag)” value amounted to 0.

With `CN1CCN(c2ccc(Br)cn2)CC1` [Fragment B02297404], the “AAK1 (STD-NMR hit flag)” value in assay [1] is given as 0. Besides, in assay [2], the “CAMK1G (STD-NMR hit flag)” value is recorded as 0. Moreover, in assay [3], the “IDO1 (STD-NMR hit flag)” value is 0. Besides, in assay [4], the “DOT1L (STD-NMR hit flag)” value was 0.

With `Cc1c(Cl)cnc(N)c1Cl` [Fragment B02297405], in assay [1], the “AAK1 (STD-NMR hit flag)” value turned out to be 1. In addition, the “CAMK1G (STD-NMR hit flag)” value in assay [2] was 1. In addition, in assay [3], the “IDO1 (STD-NMR hit flag)” value is given as 0. Moreover, in assay [4], the “DOT1L (STD-NMR hit flag)” value is recorded as 1.

In the case of `Cc1cc(N)c(Br)cn1` [Fragment B02297406], in assay [1], the “AAK1 (STD-NMR hit flag)” value amounted to 1. Besides, the “CAMK1G (STD-NMR hit flag)” value in assay [2] was found to be 0. Besides, the “IDO1 (STD-NMR hit flag)” value in assay [3] came out at 0. Further, the “DOT1L (STD-NMR hit flag)” value in assay [4] was 0.

For the molecule `COC(=O)c1cc(N)c(Cl)s1` [Fragment B02297407], in assay [1], the “AAK1 (STD-NMR hit flag)” value was 1. In assay [2], the “CAMK1G (STD-NMR hit flag)” value worked out at 0. The “IDO1 (STD-NMR hit flag)” value in assay [3] stood at 0. In addition, the “DOT1L (STD-NMR hit flag)” value in assay [4] was determined as 1.

Regarding `Brc1ccc(C2CNCCN2)s1` (stereo not shown) [Fragment B02297408], the “AAK1 (STD-NMR hit flag)” value in assay [1] is listed as 0. In assay [2], the “CAMK1G (STD-NMR hit flag)” value came out at 0. For the same molecule, in assay [3], the “IDO1 (STD-NMR hit flag)” value was found to be 0. Also, in assay [4], the “DOT1L (STD-NMR hit flag)” value was determined as 0.

As for `Nc1ccc2[nH]cnc2c1Br` [Fragment B02297409], the “AAK1 (STD-NMR hit flag)” value in assay [1] came to 1. Further, in assay [2], the “CAMK1G (STD-NMR hit flag)” value amounted to 0. In addition, the “IDO1 (STD-NMR hit flag)” value in assay [3] was 0. Also, the “DOT1L (STD-NMR hit flag)” value in assay [4] was 0.
